# Experimental data reported in patent US20070105162A1, “Monovalent avidin and streptavidin compositions” (Massachusetts Institute of Technology, priority 2005, published 2007).
# What was measured:
# [1] = tested on: biotinylated AP-CFP-TM on HeLa cells; test: Staining of biotinylated AP-CFP-TM on HeLa with Alexa Fluor 568-conjugated avidins; assay type: cell-based; settings: avidin, Alexa Fluor 568 conjugate
# Method: Enzymatic biotinylation and imaging of HeLa transfectants are performed as previously described (Howarth, M. et al., Proc. Natl. Acad. Sci. USA 102: 7583-7588, 2005), except instead of 10 μM biotin and 1 mM ATP, we add 10 μM biotin-AMP (synthesized according to Coleman and Huang; Coleman, T. M. and Huang, F. Chem. Biol. 9: 1227-1236, 2002) to give equivalent biotinylation but minimizing the risk of purinoreceptor activation by ATP (Rathbone, M. P. et al., Prog. Neurobiol. 59: 663-690, 1999). […] Biotinylation of neurons is performed at day in vitro (DIV) 8 in Hanks' Balanced Salt Solution (HBSS) (Invitrogen) with 0.2 μM biotin ligase and 10 μM biotin-AMP for 5 min at 37° C. […] Neurons are washed with NeuroBasal media (Invitrogen) supplemented with B-27 (Invitrogen), 50 U/mL penicillin, 50 μg/mL streptomycin, and 0.2 mM L-glutamine and chased in the same medium for 0 or 2 hr at 37° C. Cells are then fixed in −20° C. methanol. There was no signal from wild-type avidin labeling if neurons were instead transfected with Ala-neuroligin-1 containing a point mutation in AP, confirming the specificity of labeling. […]
# Images of HeLa cells are collected on a Zeiss Axiovert 200M inverted epifluorescence microscope using a 40× oil-immersion lens and a MicroMAX CCD camera (Roper Scientific; Tucson, Ariz.). CFP (420DF20 excitation, 450DRLP dichroic, 475DF40 emission) and Alexa568 (560DF20 excitation, 585DRLP dichroic, 605DF30 emission) images are collected and analyzed using OpenLab software (Improvision; Lexington, Mass.). Fluorescence images are background-corrected. […] Images are scaled to 16 bits and analyzed in Northern Eclipse (Empix Imaging; Ontario, Canada) with user-written software. […] Results are then calculated in terms of clusters per micrometer of dendrite. For assessment of pre-synaptic terminals, clusters are determined as before and average grey levels of clusters are compared between transfected dendrites and untransfected dendrites within the same field of view. […] “n” represents the number of transfected neurons for which clusters were measured. […]
# [2] = tested on: biotinylated AP-neuroligin-1 on hippocampal neurons; test: AP-neuroligin-1 clustering in hippocampal neurons labeled with avidin; assay type: cell-based, rat; settings: after a two hour incubation at 37° C.
# Method: HeLa cells are grown in Dulbecco's Modified Eagle Medium (DMEM) with 10% Fetal Calf Serum, 50 U/mL penicillin and 50 μg/mL streptomycin. HeLa stably expressing AP-CFP-TM or Ala-CFP-TM have been previously described (Howarth, M. et al., Proc. Natl. Acad. Sci. USA 102: 7583-7588, 2005). Dissociated primary neuronal cultures are prepared from Embryonic Day 18 or 19 (E18/19) rats and transfected with Lipofectamine 2000 at DIV6 as in Levinson et al. (Levinson, J. N. et al. J. Biol. Chem. 280: 17312-17319, 2005). […]
# Images of HeLa cells are collected on a Zeiss Axiovert 200M inverted epifluorescence microscope using a 40× oil-immersion lens and a MicroMAX CCD camera (Roper Scientific; Tucson, Ariz.). CFP (420DF20 excitation, 450DRLP dichroic, 475DF40 emission) and Alexa568 (560DF20 excitation, 585DRLP dichroic, 605DF30 emission) images are collected and analyzed using OpenLab software (Improvision; Lexington, Mass.). Fluorescence images are background-corrected. […] Images are scaled to 16 bits and analyzed in Northern Eclipse (Empix Imaging; Ontario, Canada) with user-written software. […] Results are then calculated in terms of clusters per micrometer of dendrite. For assessment of pre-synaptic terminals, clusters are determined as before and average grey levels of clusters are compared between transfected dendrites and untransfected dendrites within the same field of view. […]
# biotinylated cells = test: Binding of N23A, S27D streptavidin to biotinylated cells; assay type: cell-based
# [3] = literature value; read-out: Kd for biotin, reported; cited from earlier work
substance,measurement,setting,value
wild-type avidin: Wild-type avidin tetramer of four wild-type monomers (SEQ ID NO:17) [reference compound],Alexa staining of biotinylated AP-CFP-TM,[1],detected equally well
same,staining pattern of labeled AP-neuroligin-1,[2],distinct aggregates
"N23A, S27D: Streptavidin double mutant, still a tetramer, one of the weakest reported affinities for biotin",binding to biotinylated cells,biotinylated cells,still bound to biotinylated cells
same,Kd,[3],71 µM
